Entries after “also recorded” stand apart in the source; their conditions may differ.
How the values were obtained:
ScNAGK = target: T1, ScNAGK (Synechocystis sp., UniProt P73326); assay: AGPR-coupled NAGK activity assay without PpPII; assay type: biochemical, Synechocystis sp. PCC 6803; conditions: absence of PpPII, comparing 0 and 4 mM ADP, at 1 mM or 2 mM ATP
T1 sequence (P73326 1-297): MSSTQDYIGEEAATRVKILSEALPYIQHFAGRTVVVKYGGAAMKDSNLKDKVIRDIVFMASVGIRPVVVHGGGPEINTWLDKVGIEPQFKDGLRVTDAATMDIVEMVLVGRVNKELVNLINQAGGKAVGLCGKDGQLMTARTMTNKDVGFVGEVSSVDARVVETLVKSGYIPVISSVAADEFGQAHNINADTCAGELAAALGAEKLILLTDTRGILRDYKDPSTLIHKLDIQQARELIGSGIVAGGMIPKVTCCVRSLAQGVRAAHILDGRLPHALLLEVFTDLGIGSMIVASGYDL
Excerpt: (§1) All available structural information of PII proteins revelas that ATP and ADP bind to the same binding sites[2],[7]. When ATP and ADP are simultaneously present, they will compete for binding to the PII trimer. Since, the ATP/ADP binding site of the red algal PpPII protein is highly conserved (Fig. 1), competition between the nucleotides will occur. Since the activation of NAGK by PII is dependent on the ATP-ligated state of PII[9] and ADP inhibits PII-NAGK complex formation[9],[31], competition between ATP/ADP for PII binding can be monitored by measuring NAGK activity[31] under different ATP/ADP ratios. For this assay, we used an AGPR-coupled activity assay for NAGK[33], which allows measurement of NAGK activity in presence of ADP. Different concentrations of ADP were added to reaction mixtures containing either 1 mM or 2 mM ATP, in the absence or presence of PpPII (Fig. 8). Addition of ADP led to a monotonical and shallow decrease in the activity of ScNAGK at both fixed ATP concentration. […]
(§2) The change in NADPH absorbance was recorded at 340 nm as described previously[31],[33], in a reaction buffer composed of 50 mM potassium phosphate (pH 7.0), 50 mM KCl, 20 mM MgCl2, 0.2 mM NADPH and 0.5 mM DTT. […] The reaction was started by the addition of ScNAGK and was recorded for 10 min with a spectrophotometer (SPECORD 210 PLUS, Analytik Jena). Kinetic constants were calculated as descried above.

[1] = target: ScNAGK in the presence of PpPII (Porphyra purpurea, UniProt P51254); assay: AGPR-coupled NAGK activity assay with PpPII; assay type: biochemical, Synechocystis sp. PCC 6803; Porphyra purpurea; conditions: 4 mM ADP with 1 mM ATP
Excerpt: as §1, §2

PhyscoPII = assay: ITC binding of small effector molecules to plant-moss PhyscoPII; design: species or system Physcomitrella patens
Procedure: To gain additional insights into the ligand binding properties of PpPII in comparison to cyanobacterial and chloroplastid PII proteins, isothermal titration calorimetry (ITC) experiments were performed using highly purified Strep-tagged or His-tagged recombinant PpPII, SyPII, CrPII, and PhyscoPII proteins (Supplementary Fig. S1) with different protein/ligand/ concentrations to determine the best fitting conditions of the binding model. The titration experiments were repeated with different protein preparations to confirm the reproducibility of the results. The raw isothermal data were fitted into one-binding site as well as three-sequential binding sites to define the best fitting model. Fitting using a one binding site model states an average Kd value for all available binding sites and the mean of the stoichiometry of bound ligands.
The ITC experiments were done using a VP-ITC microcalorimeter (MicroCal, LCC). All details for determination of binding constants for small effector molecules using ITC are fully described in the supplementary information. Heat isotherms of the dilution of the ligand in the cell buffer were collected in a blank run for each experiment in the absence of protein. The binding isotherms were calculated from received data and fitted to one-site and three-sequential binding sites models using the MicroCal ORIGIN software (Northampton) as described. All titrations were performed in duplicates with different purification batches of recombinant PII proteins. The association binding constant (Ka) was generated from the software by de-convolution and curve fitting. For calculation of dissociation constant (Kd), the Ka value was inversed.
Supplementary Information […]
Determination of Binding Constants for Small Effector Molecules using Isothermal […]
The binding of the small effector molecules to the recombinant PII proteins was tested using isothermal titration calarmity (ITC); VP-ITC microcalorimeter (MicroCal). All titrations were performed on 20°C using […] injection syringe with injection 6 µl or 10 µl of the tested ligands for 45 or 29 times, respectively into the cell (1.4 ml) with continuous stirring at 155 rpm. All tested ligands were high grade, prepared freshly in the same buffer of the protein and purchased from Sigma-Aldrich. Heat isotherms for the dilution of the ligand in the cell buffer were collected in a blank run in the absence of protein. The received calorimetric data were analyzed using MicroCal Origin software and fitted into one-site and three-sequential binding sites models, as indicated by the manufacture for calculation of binding isotherms9. For data reproducibility, the titrations were performed in duplicates with different purification batches of recombinant PII proteins. The association binding constant (Ka) was generated from the software by de-convolution and curve fitting. For calculation of dissociation constant (Kd), the Ka value was inversed.
5 mM MgCl2, 0.5 mM EDTA, and 10% glycerol (pH 7.6). […]
For determination the binding isotherms of plant-moss PhyscoPII protein, a strep-tagged recombinant protein (5 or 6 µM trimeric concentration) was used in system composed of 20 mM

Sequence of ScNAGK in the presence of PpPII (P51254 whole entry): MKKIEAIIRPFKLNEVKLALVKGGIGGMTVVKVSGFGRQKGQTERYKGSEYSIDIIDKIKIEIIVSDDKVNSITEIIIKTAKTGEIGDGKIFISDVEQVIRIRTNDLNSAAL

Q: `Nc1ncnc2c1ncn2[C@@H]1O[C@H](COP(=O)(O)OP(=O)(O)O)[C@@H](O)[C@H]1O` [ADP] was tested. Which “reduction of ScNAGK activity” value (ScNAGK) did it give?
A: about 1.8 fold

Q: What about the “ScNAGK activity in the presence of PpPII at the highest ADP/ATP ratio” value [1] of the same compound?
A: as low as ScNAGK activity in the absence of PpPII

Q: And the “Average Kd (one-site binding model)” value (PhyscoPII; in presence 2-OG)?
A: No binding

Q: What about the “Kd1 (three-sites binding model)” value (PhyscoPII; in presence 2-OG) of the same compound?
A: No binding

Q: And the “Kd2 (three-sites binding model)” value (PhyscoPII; in presence 2-OG)?
A: No binding

Q: And the “Kd3 (three-sites binding model)” value (PhyscoPII; in presence 2-OG)?
A: No binding

Q: And the “Average Kd (one-site binding model)” value (PhyscoPII; titrant alone)?
A: unable to detect any binding; also recorded: No binding

Q: What about the “Kd1 (three-sites binding model)” value (PhyscoPII; titrant alone) of the same compound?
A: No binding

Q: What about the “Kd2 (three-sites binding model)” value (PhyscoPII; titrant alone) of the same compound?
A: No binding

Q: What about the “Kd3 (three-sites binding model)” value (PhyscoPII; titrant alone) of the same compound?
A: No binding

From publication PMC5768801, “The PII signaling protein from red algae represents an evolutionary link between cyanobacterial and Chloroplastida PII proteins” (Scientific Reports, 2018)
